Ten compounds from patent US11180486B2, “Indolylkojyl methane analogues, process of preparation thereof and use as inhibitor of cancer cells invasion and metastasis” (Council of Scientific & Industrial Research, priority 2017, dated 2021) can be followed below.

The structures appear in SMILES notation. A value given as a limit tells only on which side of the number the result lay.

Data set [1] deals with MDA-MB-231 cells. The experiment in a line: Cell viability (MTT) assay. The data set is classed as cell-based. The settings on record: Homo sapiens, MDA-MB-231, 48 h, 44 h + 4 h, mean ± SD of three experiments, read-out: IC50 values MDA-MB-231. The method, then: (§1) Cell Culture and Reagents. The cell lines used in this study were procured from American Type Culture Collection (ATCC), Manassas, USA. MCF7, T47D and fR2 cells were cultured in RPMI-1640 medium, whereas the MDA-MB-231 cells were grown in Leibovitz's (L-15) medium supplemented with 10% fetal bovine serum (Gibco) and 1% penicillin/streptomycin (Sigma) in a humidified CO2 incubator (New Brunswick Galaxy 170 R) with 5% CO2. Reagents such as phenylmethylsulfonyl fluoride (PMSF), dithiothreitol (DTT), DMSO, crystal violet, and Bradford's reagent were purchased from Sigma-Aldrich. Protease inhibitor cocktail was procured from Roche. The antibodies for human GRP78, Par-4, MMP-2, MMP-9, NF-kB, E-cadherin and TIMP-1 were procured from Santa-Cruz Biotechnology. The β-actin antibody and the secondary antibodies such as anti-rabbit IgG and anti-mouse IgG were procured from Sigma-Aldrich.
(§2) Cell Viability Assay. The cell viability was determined by standard MTT assay method. Briefly, MDA-MB-231, MCF7, T47D and fR2 cells were seeded in 96 well tissue culture plates (Nunc) at a density of 3×10^3 cells per well and treated with varying concentrations of the test compounds in triplicates. DMSO was taken as a vehicle and the final concentration of the DMSO was maintained at 0.2% in the culture medium. Doxorubicin was employed as a positive control. After 44 h of incubation, MTT dye solution was added into the medium and cells were incubated for another 4 h at 37° C. in 5% CO2. The amount of coloured formazan derivatives formed was measured by taking optical density (OD) using a microplate reader (TECAN, Infinite M200 Pro) at 570 nm and the percentage cell viability was calculated. The IC50 values were calculated using GraphPad Prism software (Version 5.0). Table 2. Cytotoxicity (IC50) of all synthesized compounds of invention against panel of human breast cancer cell lines (MDA-MB-231, MCF7, T47D) and normal breast epithelial (fR2) cells.

Data set [2] has as its system MCF7 cells. As to the kind of experiment: Cell viability (MTT) assay. The data set is classed as cell-based. As to conditions: Homo sapiens, MCF7, 48 h, 44 h + 4 h, mean ± SD of three experiments, read-out: IC50 values MCF7. The method, then: as §1, §2
Data set [3] concerns T47D cells. The experiment in a line: Cell viability (MTT) assay. The data set is classed as cell-based. As to conditions: Homo sapiens, 48 h, 44 h + 4 h, mean ± SD of three experiments. On the procedure: as §1, §2
Data set [4] has as its system mouse mammary carcinoma (4T1) cells. The data set is classed as in vivo. The settings on record: 100 mg/kg b.w. i.p., alternate days for two weeks. On the procedure:
In Vivo Anti-Tumor and Anti-Metastatic Efficacy Studies. To evaluate the antitumor and antimetastatic effect of 5 in vivo, healthy female Balb/c mice (b.w. 18-23 g) were taken. The experimental protocols were approved by the Institutional Animal Ethics Committee, CPCSEA, of Indian Institute of Integrative Medicine, Jammu. The animals were maintained at 22° C. with a 12 h light-dark cycle and free access to feed and water inside the institutional animal house. Proper care was taken to maintain them in a healthy condition and to avoid any risk of possible pathogenic contaminations. For subcutaneous implantation, the mice were randomized into two groups of 5 mice per group and 1.5 million mouse mammary carcinoma (4T1) cells in serum free RPMI media were injected subcutaneously into the mammary fat pad of each mouse. Either 1 week after the tumor cell implantation or when the tumor volume reached ˜150 mm^3, mice were injected intraperitoneally with either normal saline (NS) or parent compound 1 (100 mg/kg, b.w.) or 5 (30 mg/kg, b.w.) in each alternate days for two weeks. Tumor size was recorded on each alternate days post-cell injection and body weights were recorded once per week. Mice were sacrificed on the 15th day of treatment initiation and tumors were incised for its measurement. Metastatic lung nodules were counted using a dissecting microscope. Lungs were then minced into fine pieces, suspended in medium containing collagenase and kept in 37° C. incubator with vigorous shaking for 2 h. The suspension was then filtered with the help of 70 μm cell strainer (BD, USA) to get the single cell suspension. Then, the suspension was serially diluted for 3-4 times in selection medium containing 6-thioguanine, for the selection of 4T1 cells. Each dilution containing the lung cell suspension was then plated into individual petridishes and incubated at 37° C. and 5% CO2 for the growing of 4T1 cell colonies. After 15 days of incubation, cells were washed with PBS, fixed with methanol and stained with 0.2% crystal violet solution for 1 h. Images of the 4T1 colonies were observed, counted and photographed under an inverted microscope at 20× magnification.

A word on the IC50: it is the concentration that gives 50% inhibition. A word on the melting point: it is the temperature of the solid-liquid transition. On to `CCCCCCCCCC(c1oc(CO)cc(=O)c1O)c1c[nH]c2ccccc12` (stereo not shown) [Compound 6], for which the melting point fell in the range of 110 to 120 °C. The half-inhibitory concentration (IC50) in data set [1] worked out at 40.6 ± 0.621 µM. Moreover, in data set [2], the half-inhibitory concentration (IC50) is more than 100 µM. Also, the IC50 in data set [3] was more than 100 µM.

With `CCCC(c1oc(CO)cc(=O)c1O)c1c[nH]c2ccccc12` (stereo not shown) [Compound 2, 2-(1-(1H-indol-3-yl)butyl)-3-hydroxy-6-(hydroxymethyl)-4H-pyran-4-one], the melting point lay within 130 to 140 °C. Also, the IC50 in data set [1] amounted to 43.25 ± 0.416 µM. Further, in data set [2], the half-maximal inhibitory concentration (IC50) turned out to be 45.2 ± 0.348 µM. For the same compound, the IC50 in data set [3] amounted to 43 ± 0.144 µM.

As to `COc1cccc2c1C(=O)c1c(O)c3c(c(O)c1C2=O)C[C@@](O)(C(=O)CO)C[C@@H]3O[C@H]1C[C@H](N)[C@H](O)[C@H](C)O1` [DOXO, doxorubicin, reference compound], the IC50 in data set [1] worked out at 0.22 ± 0.185 µM; in data set [2], 0.085 ± 0.125 µM; in data set [3], 0.081 ± 0.211 µM.

Turning to `O=c1cc(CO)occ1O` [Compound 1, 5-Hydroxy-2-(hydroxymethyl)-4H-pyran-4-one, reference compound], the IC50 in data set [1] is 87.2 ± 1.52 µM; in data set [2], 94.5 ± 2.68 µM; in data set [3], more than 100 µM. In data set [4], the “decrease in metastatic lung nodules” value was found to be 16.7%. Further, the “inhibition in tumor growth” value in data set [4] (vs normal saline) is listed as 23%.

For the compound `CCCCCCCCCCC(c1oc(CO)cc(=O)c1O)c1c[nH]c2ccccc12` (stereo not shown) [Compound 7, 2-{1-(1H-indol-3-yl)undecyl}-3-hydroxy-6-(hydroxymethyl)-4H-pyran-4-one], the melting point lay in the range of 110 to 120 °C. Also, the IC50 in data set [1] turned out to be 49.5 ± 0.448 µM. The 50% inhibitory concentration (IC50) in data set [2] is more than 100 µM. Also, the half-maximal inhibitory concentration (IC50) in data set [3] was more than 100 µM.

For `CCCCCC(c1oc(CO)cc(=O)c1O)c1c[nH]c2ccccc12` (stereo not shown) [Compound 3, 2-{1-(1H-indol-3-yl)hexyll}-3-hydroxy-6-(hydroxymethyl)-4H-pyran-4-one], the melting point was 120 to 130 °C. Besides, the concentration for half-maximal inhibition (IC50) in data set [1] was determined as 40.6 ± 0.621 µM. Moreover, the IC50 in data set [2] is more than 100 µM. Also, in data set [3], the concentration for half-maximal inhibition (IC50) was found to be 43.5 ± 0.203 µM.

As for `CCCCCCCCCCCCCCCC(c1oc(CO)cc(=O)c1O)c1c[nH]c2ccccc12` (stereo not shown) [Compound 9, 2-{1-(1H-indol-3-yl)hexadecyl}-3-hydroxy-6-(hydroxymethyl)-4H-pyran-4-one], the melting point was in the range of 95 to 105 °C. Further, in data set [1], the IC50 came to 45.7 ± 0.195 µM. Moreover, the IC50 in data set [2] was more than 100 µM. Further, in data set [3], the half-maximal inhibitory concentration (IC50) was more than 100 µM.

In turn, `CCCCCCCCCCCCCCCCCC(c1oc(CO)cc(=O)c1O)c1c[nH]c2ccccc12` (stereo not shown) [Compound 10, 2-{1-(1H-indol-3-yl)octadecyl}-3-hydroxy-6-(hydroxymethyl)-4H-pyran-4-one] had a melting point of 90 to 100 °C. In addition, in data set [1], the 50% inhibitory concentration (IC50) came out at 48.5 ± 0.341 µM. Further, the half-inhibitory concentration (IC50) in data set [2] is more than 100 µM. In data set [3], the IC50 is more than 100 µM.

`CCCCCCCCCCCC(c1oc(CO)cc(=O)c1O)c1c[nH]c2ccccc12` (stereo not shown) [Compound 8, 2-{1-(1H-indol-3-yl)dodecyl}-3-hydroxy-6-(hydroxymethyl)-4H-pyran-4-one] displayed a melting point of 105 to 115 °C. The 50% inhibitory concentration (IC50) in data set [1] was 45.2 ± 0.535 µM. The IC50 in data set [2] is more than 100 µM. Further, the IC50 in data set [3] is more than 100 µM.

With `CCCCCCC(c1oc(CO)cc(=O)c1O)c1c[nH]c2ccccc12` (stereo not shown) [Compound 4, 2-(1-(1H-indol-3-yl)heptyl)-3-hydroxy-6-(hydroxymethyl)-4H-pyran-4-one], the melting point lay within 115 to 125 °C. Besides, the half-inhibitory concentration (IC50) in data set [1] came out at 3.84 ± 0.055 µM. For the same compound, the half-inhibitory concentration (IC50) in data set [2] worked out at 3.93 ± 0.288 µM. In data set [3], the IC50 amounted to 4.3 ± 0.443 µM.
